According to patent EP4650002A1 (Ludwig-Maximilians-Universität, priority 2024, dated 2025):

Molecular target: T1, human TLX (Homo sapiens, UniProt Q9Y466)
T1 construct: expressed in transfected cells; host or cells: HEK293T
Test: Gal4 hybrid reporter gene assay (TLX modulation)
Assay type: cell-based
Design: key to relative reporter activity: fraction of DMSO control (DMSO = 1)
Settings: for EC50: Gal4-TLX hybrid reporter in HEK293T cells, 16 h incubation; for relative reporter activity: DMSO control = 1
Description: In the Tables, the TLX relative reporter activity is expressed as EC50 (in µM) for each listed compound. "EC50" refers to a measure of the concentration of a compound which induces a biological response halfway between the baseline and maximum after a specified exposure time. […] The EC50 is measured via a hybrid reporter gene assay, employing the transfection of a reporter (firefly luciferase with Gal4 response element), a control gene (Renilla luciferase), a transcriptional activator (Gal4-VP16) and a hybrid receptor consisting of the TLX ligand binding domain (LBD) and the Gal4 DNA binding domain (DBD).
Hybrid reporter gene assays. […] After 24 h, medium was changed to Opti-MEM without supplements and cells were transiently transfected using Lipofectamine LTX reagent (Invitrogen, Carlsbad, CA, USA) according to the manufacturer's protocol. Five hours after transfection, cells were incubated with the test compounds in Opti-MEM supplemented with penicillin (100 U/mL), streptomycin (100 µg/mL) and 0.1% DMSO for 16 h before luciferase activity was measured using the Dual-Glo Luciferase Assay System (Promega) according to the manufacturer's protocol on a Tecan Spark luminometer (Tecan Deutschland GmbH, Crailsheim, Germany). Firefly luminescence was divided by Renilla luminescence and multiplied by 1000 resulting in relative light units (RLU) to normalize for transfection efficiency and cell growth. Fold activation was obtained by dividing the mean RLU of test compound by the mean RLU of the untreated control. All samples were tested in at least three biologically independent experiments in duplicates. For dose-response curve fitting and calculation of EC50 values, the equation "[Agonist] vs. response -- Variable slope (four parameters)" was used in GraphPad Prism (version 7.00, GraphPad Software, La Jolla, CA, USA).

[1] = minimal remaining or maximum reporter activity after treatment, in brackets below the EC50, <1 agonism, >1 inverse agonism

T1 sequence (Q9Y466 155-383 limits assumed): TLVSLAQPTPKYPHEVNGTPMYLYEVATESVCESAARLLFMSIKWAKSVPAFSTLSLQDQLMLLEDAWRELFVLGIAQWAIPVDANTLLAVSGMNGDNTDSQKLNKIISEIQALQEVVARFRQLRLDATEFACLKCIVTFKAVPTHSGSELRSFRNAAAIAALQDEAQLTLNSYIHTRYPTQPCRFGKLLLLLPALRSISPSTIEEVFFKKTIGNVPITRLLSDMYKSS

| EC50 [µM] | relative reporter activity [1] | SMILES | further results |
| --- | --- | --- | --- |
| 0.7 ± 0.3 | 0.24±0.07 | CC(=O)c1cc(-c2cc(N)cc(C(F)(F)F)c2)cs1 [compound 60, 1-(4-(3-amino-5-(trifluoromethyl)phenyl)thiophen-2-yl)ethan-1-one] |  |
| 1.1 ± 0.3 | 0.17±0.08 | CC(=O)c1cc(-c2cc(NC(=O)c3ccnc4ccccc34)cc(C(F)(F)F)c2)cs1 [compound 61, N-(3-(5-acetylthiophen-3-yl)-5-(trifluoromethyl)phenyl)quinoline-4-carboxamide] |  |
| 0.36 ± 0.09 | 0.27±0.03 | CC(=O)c1cc(-c2cc(NC(=O)Cc3ccccc3Cl)cc(C(F)(F)F)c2)cs1 [compound 62, N-(3-(5-acetylthiophen-3-yl)-5-(trifluoromethyl)phenyl)-2-(2-chlorophenyl)-acetamide] |  |
| 11 ± 3 | 0.58±0.10 | Nc1cc(-c2cscn2)cc(C(F)(F)F)c1 [compound 63, 3-(thiazol-4-yl)-5-(trifluoromethyl)aniline] |  |
|  |  | Cc1nc(-c2cc(N)cc(C(F)(F)F)c2)cs1 [compound 64, 3-(2-methylthiazol-4-yl)-5-(trifluoromethyl)aniline] | relative reporter activity (at 120 µM): (0.67±0.06 at 120 µM) |
|  | 0.26±0.05 | CC(=O)c1nc(-c2cc(N)cc(C(F)(F)F)c2)cs1 [compound 65, 1-(4-(3-Amino-5-(trifluoromethyl)phenyl)thiazol-2-yl)ethan-1-one] |  |
| 2.1 ± 0.5 | 0.40±0.06 | Nc1cc(-c2cncnc2)cc(C(F)(F)F)c1 [compound 66, 3-(pyrimidin-5-yl)-5-(trifluoromethyl)aniline] |  |
|  |  | Cc1ccc(-c2cc(N)cc(C(F)(F)F)c2)cc1 [compound 67, 4'-methyl-5-(trifluoromethyl)-[1, 1 '-biphenyl]-3-amine] | relative reporter activity (at 30 µM): inactive at 30 µM |
| 15 ± 6 | 0.34±0.09 | Cc1ncc(-c2cc(N)cc(C(F)(F)F)c2)cn1 [compound 68, 3-(2-methylpyrimidin-5-yl)-5-(trifluoromethyl)aniline] |  |
| 6.3 ± 2.1 |  | Cc1cc(-c2cc(N)cc(C(F)(F)F)c2)cnc1C [compound 69, 3-(5,6-dimethylpyridin-3-yl)-5-(trifluoromethyl)aniline] |  |
| 4.6 ± 2.4 |  | CC(=O)c1cncc(-c2cc(N)cc(C(F)(F)F)c2)c1 [compound 70, 1-(5-(3-amino-5-(trifluoromethyl)phenyl)pyridin-3-yl)ethan-1-one] |  |
|  |  | Cc1cccc(-c2cc(N)cc(C(F)(F)F)c2)c1 [compound 72, 3'-methyl-5-(trifluoromethyl)-[1,1'-biphenyl]-3-amine] | relative reporter activity (at 30 µM): inactive at 30 µM |
| 13 ± 4 | 0.18±0.13 | Nc1cc(-c2ccncc2)cc(C(F)(F)F)c1 [compound 73, 3-(pyridin-4-yl)-5-(trifluoromethyl)aniline] |  |
| 6.6 ± 2.1 |  | Cc1cc(-c2cc(N)cc(C(F)(F)F)c2)ccn1 [compound 74, 3-(2-methylpyridin-4-yl)-5-(trifluoromethyl)aniline] |  |
| 0.41 ± 0.11 | 0.26±0.05 | Cc1cc(-c2cc(NC(=O)c3ccnc4ccccc34)cc(C(F)(F)F)c2)ccn1 [compound 75, N-(3-(2-methylpyridin-4-yl)-5-(trifluoromethyl)phenyl)quinoline-4-carboxamide] |  |
| 0.3 ± 0.07 | 0.12±0.06 | Cc1cc(-c2cc(NC(=O)Cc3ccccc3)cc(C(F)(F)F)c2)ccn1 [compound 76, N-(3-(2-methylpyridin-4-yl)-5-(trifluoromethyl)phenyl)-2-phenylacetamide] |  |
| 0.6 ± 0.2 | 0.51±0.5 | Cc1cc(-c2cc(NC(=O)c3ccc(Cl)c(Cl)c3)cc(C(F)(F)F)c2)ccn1 [compound 78, 3,4-dichloro-N-(3-(2-methylpyridin-4-yl)-5-(trifluoromethyl)phenyl)benzamide] |  |
| 0.97 ± 0.22 | 0.29±0.06 | Cc1cc(-c2cc(NC(=O)c3ccc4ccccc4c3)cc(C(F)(F)F)c2)ccn1 [compound 80, N-(3-(2-methylpyridin-4-yl)-5-(trifluoromethyl)phenyl)-2-naphthamide] |  |

| EC50 [µM] | relative reporter activity [1] | SMILES | further results |
| --- | --- | --- | --- |
| 1.2 ± 0.2 | 0.39±0.05 | Cc1cc(-c2cc(NC(=O)c3cc4ccccc4s3)cc(C(F)(F)F)c2)ccn1 [compound 81, N-(3-(2-methylpyridin-4-yl)-5-(trifluoromethyl)phenyl)benzo[b]thiophene-2-carboxamide] |  |
| 0.6 ± 0.2 | 0.17±0.09 | Cc1cc(-c2cc(NC(=O)C3CCC3)cc(C(F)(F)F)c2)ccn1 [compound 82, N-(3-(2-methylpyridin-4-yl)-5-(trifluoromethyl)phenyl)cyclobutanecarboxamide] |  |
|  |  | C=C(C(=O)Nc1cc(-c2ccnc(C)c2)cc(C(F)(F)F)c1)c1ccc2cc(OC)ccc2c1 [compound 83, 2-(6-methoxynaphthalen-2-yl)-N-(3-(2-methylpyridin-4-yl)-5-(trifluoromethyl)-phenyl)propenamide] | relative reporter activity (at 10 µM): (0.66±0.07 at 10 µM) |
|  |  | Cc1cc(-c2cc(NC(=O)C(O)(c3ccccc3)C3CCCC3)cc(C(F)(F)F)c2)ccn1 (centres unmarked) [compound 84, 2-cyclopentyl-2-hydroxy-N-(3-(2-methylpyridin-4-yl)-5-(trifluoromethyl)phenyl)-2-phenylacetamide] | relative reporter activity (at 3 µM): (0.26±0.05 at 3 µM) |
|  |  | Cc1cc(-c2cc(NC(=O)C3CCCNC3)cc(C(F)(F)F)c2)ccn1 (centres unmarked) [compound 85, N-(3-(2-methylpyridin-4-yl)-5-(trifluoromethyl)phenyl)piperidine-3-carboxamide] | relative reporter activity (at 20 µM): (0.15±0.01 at 20 µM) |
| 3.3 ± 0.7 | 0.32±0.03 | Cc1cc(-c2cc(NC(=O)c3cc(C)[nH]n3)cc(C(F)(F)F)c2)ccn1 [compound 86, 5-methyl-N-(3-(2-methylpyridin-4-yl)-5-(trifluoromethyl)phenyl)-1H-pyrazole-3-carboxamide] |  |
| 4.6 ± 2.1 | 0.30±0.05 | CC(=O)c1cc(-c2cc(N)cc(C(F)(F)F)c2)ccn1 [compound 87, 1-(4-(3-amino-5-(trifluoromethyl)phenyl)pyridin-2-yl)ethan-1-one] |  |
| 1.6 ± 0.8 |  | Cc1cc(-c2cc(N)cc(C(F)(F)F)c2)cc(C)n1 [compound 88, 3-(2,6-dimethylpyridin-4-yl)-5-(trifluoromethyl)aniline] |  |
| 1.1 ± 0.1 |  | Cn1ccc2cc(-c3cc(N)cc(C(F)(F)F)c3)ccc21 [compound 90, 3-(1-methyl-1H-indol-5-yl)-5-(trifluoromethyl)aniline] |  |
|  |  | Nc1cc(-c2ccc3occc3c2)cc(C(F)(F)F)c1 [compound 91, 3-(benzofuran-5-yl)-5-(trifluoromethyl)aniline] | relative reporter activity (at 10 µM): (0.84±0.06 at 10 µM) |
|  |  | Nc1cc(-c2ccc3sccc3c2)cc(C(F)(F)F)c1 [compound 92, 3-(benzo[b]thiophen-5-yl)-5-(trifluoromethyl)aniline] | relative reporter activity (at 10 µM): inactive at 10 µM |
| 3.7 ± 0.6 |  | Nc1cc(-c2ccn3ccnc3c2)cc(C(F)(F)F)c1 [compound 94, 3-(imidazo[1,2-a]pyridin-7-yl)-5-(trifluoromethyl)aniline] |  |
|  |  | CN(C)c1ccc(-c2cc(N)cc(C(F)(F)F)c2)cc1 [compound 95, N4',N4'-dimethyl-5-(trifluoromethyl)-[1,1'-biphenyl]-3,4'-diamine] | relative reporter activity (at 20 µM): (0.41±0.11 at 20 µM) |
| 2.3 ± 0.7 |  | Nc1cc(-c2ccc3c(c2)CCN3)cc(C(F)(F)F)c1 [compound 96, 3-(indolin-5-yl)-5-(trifluoromethyl)aniline] |  |
| 1.6 ± 0.9 |  | Cn1ncc2cc(-c3cc(N)cc(C(F)(F)F)c3)ccc21 [compound 97, 3-(1-methyl-1H-indazol-5-yl)-5-(trifluoromethyl)aniline] |  |
| 0.4 ± 0.07 | 0.29±0.03 | Cn1ccc2cc(-c3cc(N)cc(C(F)(F)F)c3)cnc21 [compound 98, 3-(1-methyl-1H-pyrrolo[2,3-b]pyridin-5-yl)-5-(trifluoromethyl)aniline] |  |
| 18 ± 1 |  | Cn1ccc2c(-c3cc(N)cc(C(F)(F)F)c3)cccc21 [compound 100, 3-(1-Methyl-1H-indol-4-yl)-5-(trifluoromethyl)aniline] | relative reporter activity (at 10 µM): 0.55±0.06 |

| SMILES | EC50 [µM] | relative reporter activity [1] | further results |
| --- | --- | --- | --- |
| CC(=O)Nc1cc(-c2ccnc(C)c2)cc(C(F)(F)F)c1 [compound 79, N-(3-(2-methylpyridin-4-yl)-5-(trifluoromethyl)phenyl)acetamide] | 2.6 ± 0.4 | 0.18±0.06 |  |
| Nc1cc(-c2ccc3[nH]ccc3c2)cc(C(F)(F)F)c1 [compound 93, 3-(1H-indol-5-yl)-5-(trifluoromethyl)aniline] | 1.4 ± 0.4 |  |  |
| Nc1cc(-c2cccc3[nH]ccc23)cc(C(F)(F)F)c1 [compound 99, 3-(1H-Indol-4-yl)-5-(trifluoromethyl)aniline] | 3 ± 0.2 |  |  |
